Reference: patent publication US12594276B2, “Inhibitors of human immunodeficiency virus replication” (ViiV Healthcare UK (No.5) Limited, priority 2024, dated 2026)
Like-named read-outs stand apart in the source and are kept apart here.

Legend:
[1] = test system: recombinant NL4-3 virus (nef section replaced with Renilla luciferase gene) in MT-2 cells; assay: HIV cell culture assay (antiviral activity, luciferase readout); format: cell-based; conditions: Renilla, NL43, MT-2 cells infected for 4-5 days with recombinant NL4-3 Renilla luciferase virus
Outline: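 Compound activity was measured as reduction of luciferase in MT-2 cells infected for 4-5 days with serially diluted compound present. EC50 values were calculated with the median effect equation.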

[2] = Compound cytotoxicity, XTT-based colorimetric assay; format: cell-based; conditions: human
Outline: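 Uninfected MT2 cells were treated with compound under the same protocol as the antiviral assay. Viability was read on day 4 with an XTT colorimetric assay, from which CC50 values were derived.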

[3] = uninfected MT2 cells, day 4, XTT, read-out: CC50

| SMILES | EC50 [1] [nM] | CC50 at 4 days [2, 3] [nM] | CC50 at 4 days [2] [nM] |
| --- | --- | --- | --- |
| C[C@@H]1CN(CCn2nc(NS(C)(=O)=O)c3c(Cl)ccc(-n4c([C@H](Cc5cc(F)cc(F)c5)NC(=O)Cn5nc(C6CC6)c6c5C[C@@H]5C[C@H]65)nc5nc(C6CCC(F)(F)CC6)cc(C(F)F)c5c4=O)c32)CC(C)(C)O1 (atropisomer, axis not shown; (P)) [Example 462, N-[(1S)-1-[(3P)-3-(4-chloro-3-methanesulfonamido-1-{2-[(6R)-2,2,6-trimethylmorpholin-4-yl]ethyl}-1H-indazol-7-yl)-7-(4,4-difluorocyclohexyl)-5-(difluoromethyl)-4-oxo-3H,4H-pyrido[2,3-d]pyrimidin-2-yl]-2-(3,5-difluorophenyl)ethyl]-2-[(2S,4S)-9-cyclopropyl-7,8-diazatricyclo[4.3.0.0^2,^4]nona-1(6),8-dien-7-yl]acetamide] | 0.019 | > 20 |  |
| Cc1cc(C2(F)CCC(F)(F)CC2)nc2nc([C@H](Cc3cc(F)cc(F)c3)NC(=O)Cn3nc(C4CC4)c4c3C(F)(F)[C@@H]3C[C@H]43)n(-c3ccc(Cl)c4c(NS(C)(=O)=O)nn(CCN5C[C@@H](C)O[C@@H](C)C5)c34)c(=O)c12 (atropisomer, axis not shown; (P)) [Example 595, N-[(1S)-1-[(3P)-3-(4-chloro-1-{2-[(2R,6S)-2,6-dimethylmorpholin-4-yl]ethyl}-3-methanesulfonamido-1H-indazol-7-yl)-5-methyl-4-oxo-7-(1,4,4-trifluorocyclohexyl)-3H,4H-pyrido[2,3-d]pyrimidin-2-yl]-2-(3,5-difluorophenyl)ethyl]-2-[(2S,4R)-9-cyclopropyl-5,5-difluoro-7,8-diazatricyclo[4.3.0.0^2,^4]nona-1(6),8-dien-7-yl]acetamide] | 0.014 | > 20 |  |
| CS(=O)(=O)Nc1nn(CCN2[C@@H]3CC[C@H]2COC3)c2c(-n3c([C@H](Cc4cc(F)cc(F)c4)NC(=O)Cn4nc(C5CC5)c5c4C[C@@H]4C[C@H]54)nc4nc(C5CCC(F)(F)CC5)cc(C(F)F)c4c3=O)ccc(Cl)c12 (atropisomer, axis not shown; (P)) [Example 289, N-[(1S)-1-[(3P)-3-(4-chloro-3-methanesulfonamido-1-{2-[(1R,5S)-3-oxa-8-azabicyclo[3.2.1]octan-8-yl]ethyl}-1H-indazol-7-yl)-7-(4,4-difluorocyclohexyl)-5-(difluoromethyl)-4-oxo-3H,4H-pyrido[2,3-d]pyrimidin-2-yl]-2-(3,5-difluorophenyl)ethyl]-2-[(2S,4S)-9-cyclopropyl-7,8-diazatricyclo[4.3.0.0^2,^4]nona-1(6),8-dien-7-yl]acetamide] | 0.025 |  | > 50 |
| Cc1cc(C2(C)CCC(F)(F)CC2)nc2nc([C@H](Cc3cc(F)cc(F)c3)NC(=O)Cn3nc(C(F)F)c4c3C(F)(F)[C@@H]3C[C@H]43)n(-c3ccc(Cl)c4c(NS(C)(=O)=O)nn(CCN5C[C@H](F)C[C@H](F)C5)c34)c(=O)c12 (atropisomer, axis not shown; (P)) [Example 473, N-[(1S)-1-[(3P)-3-(4-chloro-1-{2-[(3R,5S)-3,5-difluoropiperidin-1-yl]ethyl}-3-methanesulfonamido-1H-indazol-7-yl)-7-(4,4-difluoro-1-methylcyclohexyl)-5-methyl-4-oxo-3H,4H-pyrido[2,3-d]pyrimidin-2-yl]-2-(3,5-difluorophenyl)ethyl]-2-[(2S,4R)-9-(difluoromethyl)-5,5-difluoro-7,8-diazatricyclo[4.3.0.0^2,^4]nona-1(6),8-dien-7-yl]acetamide] | 0.008 | > 20 |  |
| Cc1cc(C2CCC(F)(F)CC2)nc2nc([C@H](Cc3cc(F)cc(F)c3)NC(=O)Cn3nc(C4CC4)c4c3C[C@@H]3C[C@H]43)n(-c3ccc(Cl)c4c(NS(C)(=O)=O)nn(CCNC5COC5)c34)c(=O)c12 (atropisomer, axis not shown; (P)) [Example 279, N-[(1S)-1-[(3P)-3-(4-chloro-3-methanesulfonamido-1-{2-[(oxetan-3-yl)amino]ethyl}-1H-indazol-7-yl)-7-(4,4-difluorocyclohexyl)-5-methyl-4-oxo-3H,4H-pyrido[2,3-d]pyrimidin-2-yl]-2-(3,5-difluorophenyl)ethyl]-2-[(2S,4S)-9-cyclopropyl-7,8-diazatricyclo[4.3.0.0^2,^4]nona-1(6),8-dien-7-yl]acetamide] | 0.036 | > 50 |  |
| C[C@@H]1CN(CCn2nc(NS(C)(=O)=O)c3c(Cl)ccc(-n4c([C@H](Cc5cc(F)cc(F)c5)NC(=O)Cn5nc(C6CC6)c6c5C[C@@H]5C[C@H]65)nc5nc(C6CCC(F)(F)CC6)cc(C(F)F)c5c4=O)c32)C[C@H](C)O1 (atropisomer, axis not shown; (P)) [Example 240, N-[(1S)-1-[(3P)-3-(4-chloro-1-{2-[(2R,6S)-2,6-dimethylmorpholin-4-yl]ethyl}-3-methanesulfonamido-1H-indazol-7-yl)-7-(4,4-difluorocyclohexyl)-5-(difluoromethyl)-4-oxo-3H,4H-pyrido[2,3-d]pyrimidin-2-yl]-2-(3,5-difluorophenyl)ethyl]-2-[(2S,4S)-9-cyclopropyl-7,8-diazatricyclo[4.3.0.0^2,^4]nona-1(6),8-dien-7-yl]acetamide] | 0.026 | > 50 |  |
| Cc1cc(C2(F)CCC(F)(F)CC2)nc2nc([C@H](Cc3cc(F)cc(F)c3)NC(=O)Cn3nc(C(F)F)c4c3C(F)(F)[C@@H]3C[C@H]43)n(-c3ccc(Cl)c4c(NS(C)(=O)=O)nn(CCN5C[C@H](C)OC(C)(C)C5)c34)c(=O)c12 (atropisomer, axis not shown; (P)) [Example 576] | 0.01 | > 20 |  |
| Cc1cc(C2CCC(F)(F)CC2)nc2nc([C@H](Cc3cc(F)cc(F)c3)NC(=O)Cn3nc(C(F)F)c4c3C(F)(F)[C@@H]3C[C@H]43)n(-c3ccc(Cl)c4c(NS(C)(=O)=O)nn(CCN5CCCC(F)(F)C5)c34)c(=O)c12 (atropisomer, axis not shown; (P)) [Example 14, N-[(1S)-1-[(3P)-3-{4-chloro-1-[2-(3,3-difluoropiperidin-1-yl)ethyl]-3-methanesulfonamido-1H-indazol-7-yl}-7-(4,4-difluorocyclohexyl)-5-methyl-4-oxo-3H,4H-pyrido[2,3-d]pyrimidin-2-yl]-2-(3,5-difluorophenyl)ethyl]-2-[(2S,4R)-9-(difluoromethyl)-5,5-difluoro-7,8-diazatricyclo[4.3.0.0^2,^4]nona-1(6),8-dien-7-yl]acetamide] | 0.009 | > 50 |  |
| Cc1cc(C2(F)CCC(F)(F)CC2)nc2nc([C@H](Cc3cc(F)cc(F)c3)NC(=O)Cn3nc(C4CC4)c4c3C[C@@H]3C[C@H]43)n(-c3ccc(Cl)c4c(NS(C)(=O)=O)nn(CCN5CCOC(C)(C)C5)c34)c(=O)c12 (atropisomer, axis not shown; (P)) [Example 585, N-[(1S)-1-[(3P)-3-{4-chloro-1-[2-(2,2-dimethylmorpholin-4-yl)ethyl]-3-methanesulfonamido-1H-indazol-7-yl}-5-methyl-4-oxo-7-(1,4,4-trifluorocyclohexyl)-3H,4H-pyrido[2,3-d]pyrimidin-2-yl]-2-(3,5-difluorophenyl)ethyl]-2-[(2S,4S)-9-cyclopropyl-7,8-diazatricyclo[4.3.0.0^2,^4]nona-1(6),8-dien-7-yl]acetamide] | 0.012 | > 20 |  |
| CS(=O)(=O)Nc1nn(CCN2[C@@H]3CC[C@H]2CC(F)(F)C3)c2c(-n3c([C@H](Cc4cc(F)cc(F)c4)NC(=O)Cn4nc(C(F)F)c5c4C(F)(F)[C@@H]4C[C@H]54)nc4nc(C5CCC(F)(F)CC5)ccc4c3=O)ccc(Cl)c12 (atropisomer, axis not shown; (P)) [Example 43, N-[(1S)-1-[(3P)-3-(4-chloro-1-{2-[(1R,5S)-3,3-difluoro-8-azabicyclo[3.2.1]octan-8-yl]ethyl}-3-methanesulfonamido-1H-indazol-7-yl)-7-(4,4-difluorocyclohexyl)-4-oxo-3H,4H-pyrido[2,3-d]pyrimidin-2-yl]-2-(3,5-difluorophenyl)ethyl]-2-[(2S,4R)-9-(difluoromethyl)-5,5-difluoro-7,8-diazatricyclo[4.3.0.0^2,^4]nona-1(6),8-dien-7-yl]acetamide] | 0.021 |  | > 50 |
| CC(C)[C@H]1CN(CCn2nc(NS(C)(=O)=O)c3c(Cl)ccc(-n4c([C@H](Cc5cc(F)cc(F)c5)NC(=O)Cn5nc(C6CC6)c6c5C[C@@H]5C[C@H]65)nc5nc(C6CCC(F)(F)CC6)cc(C(F)F)c5c4=O)c32)CCO1 (atropisomer, axis not shown; (P)) [Example 467, N-[(1S)-1-[(3P)-3-(4-chloro-3-methanesulfonamido-1-{2-[(2S)-2-(propan-2-yl)morpholin-4-yl]ethyl}-1H-indazol-7-yl)-7-(4,4-difluorocyclohexyl)-5-(difluoromethyl)-4-oxo-3H,4H-pyrido[2,3-d]pyrimidin-2-yl]-2-(3,5-difluorophenyl)ethyl]-2-[(2S,4S)-9-cyclopropyl-7,8-diazatricyclo[4.3.0.0^2,^4]nona-1(6),8-dien-7-yl]acetamide] | 0.017 | > 20 |  |
| C[C@H](O)c1cc(C2CCC(F)(F)CC2)nc2nc([C@H](Cc3cc(F)cc(F)c3)NC(=O)Cn3nc(C(F)F)c4c3C(F)(F)[C@@H]3C[C@H]43)n(-c3ccc(Cl)c4c(NS(C)(=O)=O)nn(CCN5CCC(F)(F)CC5)c34)c(=O)c12 (relative stereo) [Example 698, N-[(1S)-1-[(3P)-3-{4-chloro-1-[2-(4,4-difluoropiperidin-1-yl)ethyl]-3-methanesulfonamido-1H-indazol-7-yl}-7-(4,4-difluorocyclohexyl)-5-[(1R**)-1-hydroxyethyl]-4-oxo-3H,4H-pyrido[2,3-d]pyrimidin-2-yl]-2-(3,5-difluorophenyl)ethyl]-2-[(2R*,4S*)-9-(difluoromethyl)-5,5-difluoro-7,8-diazatricyclo[4.3.0.0^2,4]nona-1(6),8-dien-7-yl]acetamide] | 0.027 | > 20 |  |
